The values below come from ChEMBL document CHEMBL1136493, “Synthesis and anti-HIV properties of new water-soluble bis-functionalized[60]fullerene derivatives” (Bioorg Med Chem Lett, 2003).

Usually EC50 stands for the concentration giving half of the maximal effect. The term CC50 denotes the concentration that lowers cell viability or growth by half.

Conditions in all cases: Homo sapiens
In test [1] the test system is CCRF-CEM. The test can be described thus: Effective concentration required to inhibit HIV-induced (HIV-2) cytopathicity by 50% in CEM cell cultures. Type of test: functional, cell-based. Background: Cytopathic effects are the visible damage that an infection or toxin causes in cultured cells.
The subject of test [2] is CCRF-CEM. In words: Cytostatic concentration required to inhibit CEM cell proliferation by 50%. Type of test: functional.
In test [3] the test system is CCRF-CEM. The test can be described thus: Effective concentration required to inhibit HIV-induced (HIV-1) cytopathicity by 50% in CEM cell cultures. Type of test: functional, cell-based.

Regarding `NCCOCCOCCN1CC23C4=c5c6c7c8c9c%10c%11c%12c%13c9c9c%14c%15c%16c%17c%18c%19c%20c%21c%22c%23c%24c(c-%11c(c2c%24c2c%11c%24c%25c(c5c5c6c(c8%14)c%15c6c%17c(c%25c56)c5c%18c%21c(c%232)c%245)C%113C1)C4C%107)C%12C%22C%201CN(CCOCCOCCN)CC%131C9C%19%16` (stereo not given), the EC50 in test [1] and in test [3] was over 4 µM throughout. The CC50 in test [2] is 7.2 µM.

For `C[N+]1(CCOCCOCCN)CC23C4=c5c6c7c8c9c%10c%11c%12c%13c%14c%15c%16c%17c%18c%19c%20c%21c%22c%23c%24c(c2c%22c2c%22c%25c%26c(c5c(c6%10)c5c%11c6c%13c(c%14%18)c%10c%19c(c%212)c%25c%10c6c%265)C%223C1)C4C7C1=C%24C(=C%16C2(C[N+](C)(CCOCCOCCN)CC182)C%15C9%12)C%23C%17%20` (stereo not given), the EC50 in test [1] was over 4 µM; in test [3], 0.96 µM. In test [2], this compound gave a CC50 of 3.02 µM.

On to `NCCOCCOCCN1CC23C4=c5c6c7c8c9c%10c%11c%12c%13c%14c%15c%16c%17c%18c%19c%20c%21c%22c%23c%24c(c2c%22c2c%22c%25c%26c(c5c(c6%10)c5c%11c6c%13c(c%14%18)c%10c%19c(c%212)c%25c%10c6c%265)C%223C1)C4C7C1=C%24C(=C%16C2(CN(CCOCCOCCN)CC182)C%15C9%12)C%23C%17%20` (stereo not given), for which the EC50 in test [1] and in test [3] was over 4 µM each time. Besides, the CC50 in test [2] was determined as 7.63 µM.

For `NCCOCCOCCN1CC23C4=c5c6c7c8c9c%10c%11c%12c%13c%14c%15c%16c%17c%18c%19c%20c%21c%22c(c2c%20c2c%20c%23c%24c(c5c7c5c9c7c%11c(c%12%16)c9c%17c(c%192)c%23c9c7c%245)C%203C1)C4C1C=6C2c3c1c-%22c(c-%14c3C%13C%10C82)C%211CN(CCOCCOCCN)CC%15%181` (stereo not given), the EC50 in test [1] and in test [3] was over 4 µM in each case. Moreover, it took 7.4 µM to reach half-maximal cytotoxicity in test [2] (CC50).

Consider `C[N+]1(CCOCCOCCN)CC23C4=C5c6c7c8c9c(c%10c%11c%12c%13c%14c%15c%16c%17c%18c%19c%20c%21c%22c%23c(c6c6c%22c%22c%20c(c%15%19)c%13c(c%129)c%22c86)C5C5C6c8c9c(c-%17c%12c8C5C%23C%21C%12%18)C5c8c-9c(c2c-%10c8C%112C[N+](C)(CCOCCOCCN)CC%142C%165)C46)C73C1` (stereo not given), for which the EC50 was over 4 µM in test [1] and 1.6 µM in test [3]. It took 6.59 µM to reach half-maximal cytotoxicity in test [2] (CC50).

Turning to `COCCOCCOCCOC(=O)C1(C(=O)OCCOCCOCCOC)C23C4=c5c6c7c8c9c%10c%11c%12c%13c9c9c%14c%15c%16c%17c%18c%19c%20c%21c%22c%23c%24c(c-%11c(c2c%24c2c%11c%24c%25c(c5c5c6c(c8%14)c%15c6c%17c(c%25c56)c5c%18c%21c(c%232)c%245)C%1113)C4C%107)C%12C%22C%201CN(CCOCCOCCN)CC%131C9C%19%16` (stereo not given), the EC50 in test [1] and in test [3] was over 4 µM in each case.

On to `O=C(O)CN(CCOCCOCCN1CC23C4=c5c6c7c8c9c%10c%11c%12c%13c9c9c%14c%15c%16c%17c%18c%19c%20c%21c%22c%23c%24c(c-%11c(c2c%24c2c%11c%24c%25c(c5c5c6c(c8%14)c%15c6c%17c(c%25c56)c5c%18c%21c(c%232)c%245)C%113C1)C4C%107)C%12C%22C%201CN(CCOCCOCCN(CC(=O)O)CC(=O)O)CC%131C9C%19%16)CC(=O)O` (stereo not given), for which the values for the EC50 in test [1] and in test [3] were over 4 µM and 2.01 µM, respectively.

Turning to `O=C(O)CN(CCOCCOCCN1CC23C4=C5c6c7c8c9c(c%10c%11c%12c%13c%14c%15c%16c%17c%18c%19c%20c%21c%22c%23c(c6c6c%22c%22c%20c(c%15%19)c%13c(c%129)c%22c86)C5C5C6c8c9c(c-%17c%12c8C5C%23C%21C%12%18)C5c8c-9c(c2c-%10c8C%112CN(CCOCCOCCN(CC(=O)O)CC(=O)O)CC%142C%165)C46)C73C1)CC(=O)O` (stereo not given), the EC50 in test [1] and in test [3] was over 4 µM in each case.

Turning to `NCCOCCOCCN1CC23C4=C5c6c7c8c9c(c%10c%11c%12c%13c%14c%15c%16c%17c%18c%19c%20c%21c%22c%23c(c6c6c%22c%22c%20c(c%15%19)c%13c(c%129)c%22c86)C5C5C6c8c9c(c-%17c%12c8C5C%23C%21C%12%18)C5c8c-9c(c2c-%10c8C%112CN(CCOCCOCCN)CC%142C%165)C46)C73C1` (stereo not given), the EC50 in test [1] and in test [3] was over 4 µM in each case. This compound returned a CC50 in test [2] of 9.6 µM.

As to `C[N+]1(CCOCCOCCN)CC23C4=c5c6c7c8c9c%10c%11c%12c%13c9c9c%14c%15c%16c%17c%18c%19c%20c%21c%22c%23c%24c(c-%11c(c2c%24c2c%11c%24c%25c(c5c5c6c(c8%14)c%15c6c%17c(c%25c56)c5c%18c%21c(c%232)c%245)C%113C1)C4C%107)C%12C%22C%201C[N+](C)(CCOCCOCCN)CC%131C9C%19%16` (stereo not given), the EC50 is over 4 µM in test [1] and 0.4 µM in test [3]. In test [2], the CC50 was 4.79 µM.

As to `C[N+]1(CCOCCOCCN)CC23C4=c5c6c7c8c9c%10c%11c%12c%13c%14c%15c%16c%17c%18c%19c%20c%21c%22c%23c%24c(c2c%22c2c%22c%25c%26c(c5c(c6%10)c5c%11c6c%13c(c%14%18)c%10c%19c(c%212)c%25c%10c6c%265)C%223C1)C4C7c1c-%24c(c-%16c(c1-8)C%15C9%12)C%23C%17%20` (stereo not given), the EC50 in test [1] and in test [3] was over 4 µM each time. In test [2], this compound showed a CC50 of 44.3 µM.

In the case of `C[N+]1(CCOCCOCCN)CC23C4=c5c6c7c8c9c%10c%11c%12c%13c%14c%15c%16c%17c%18c%19c%20c%21c%22c(c2c%20c2c%20c%23c%24c(c5c7c5c9c7c%11c(c%12%16)c9c%17c(c%192)c%23c9c7c%245)C%203C1)C4C1C=6C2c3c1c-%22c(c-%14c3C%13C%10C82)C%211C[N+](C)(CCOCCOCCN)CC%15%181` (stereo not given), the EC50 in test [1] is over 4 µM; in test [3], 2.6 µM. This compound displayed a CC50 in test [2] of 13.2 µM.

`COCCOCCOCCOC(=O)C1(C(=O)OCCOCCOCCOC)C23C4=C5c6c7c8c9c(c%10c%11c%12c%13c%14c%15c%16c%17c%18c%19c%20c%21c%22c%23c(c6c6c%22c%22c%20c(c%15%19)c%13c(c%129)c%22c86)C5C5C6c8c9c(c-%17c%12c8C5C%23C%21C%12%18)C5c8c-9c(c2c-%10c8C%112CN(CCOCCOCCN)CC%142C%165)C46)C713` (stereo not given): the EC50 in test [1] and in test [3] was over 4 µM throughout.
